{"source": "patent US7816522B2", "about": "“Triazolone derivatives” (Eisai Co., Ltd., priority 2006, dated 2010)", "note": "Counter-ions that a name gives are not always drawn.", "data": [{"target": "T1, human clotting factor VIIa (Homo sapiens, UniProt P08709)", "T1 construct": "a human clotting factor VIIa (hereinafter, “Factor VIIa”) purified sample; purchased Enzyme Research Laboratories HFVIIa", "T1 sequence (P08709 213-466 limits assumed)": "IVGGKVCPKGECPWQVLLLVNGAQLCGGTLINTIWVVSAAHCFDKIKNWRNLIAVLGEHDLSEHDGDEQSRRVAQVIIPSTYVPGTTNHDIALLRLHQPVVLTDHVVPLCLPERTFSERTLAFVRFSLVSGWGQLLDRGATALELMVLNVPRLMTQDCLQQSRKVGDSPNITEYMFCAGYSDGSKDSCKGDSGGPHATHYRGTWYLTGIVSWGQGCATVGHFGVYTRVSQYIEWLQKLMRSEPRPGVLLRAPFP", "T1 sequence (P08709 61-212 limits assumed)": "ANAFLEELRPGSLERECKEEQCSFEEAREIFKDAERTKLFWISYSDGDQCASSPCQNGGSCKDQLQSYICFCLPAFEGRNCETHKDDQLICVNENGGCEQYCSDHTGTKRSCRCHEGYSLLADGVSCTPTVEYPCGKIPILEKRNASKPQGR", "T1 sequence (P13726 33-295 partner)": "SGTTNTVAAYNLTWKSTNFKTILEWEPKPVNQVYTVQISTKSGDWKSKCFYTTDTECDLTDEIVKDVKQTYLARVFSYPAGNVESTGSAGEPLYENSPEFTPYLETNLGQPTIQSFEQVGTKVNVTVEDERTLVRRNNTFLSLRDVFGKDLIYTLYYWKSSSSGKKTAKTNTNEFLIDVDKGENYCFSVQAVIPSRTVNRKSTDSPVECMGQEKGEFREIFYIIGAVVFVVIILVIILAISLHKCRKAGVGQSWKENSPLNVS", "experiment": "Inhibitory activity against clotting factor VIIa (chromogenic substrate Spectrozyme FVIIa, TF/Factor VIIa enzyme solution)", "assay_type": "biochemical", "settings": "human Factor VIIa 5 nmol/L with human TF 10 nmol/L, room temperature 40 minutes, 405 nm", "experimental": "[Inhibitory Activity Against Clotting Factor VIIa]\nDimethylsulfoxide (DMSO) solutions were prepared with compounds of the invention at concentration of 10 mmol/L (10 mmol/L compound solutions).\nOne packet of tris-hydroxymethylaminomethane-preset (hereinafter referred to as “Tris preset”) (Product of Sigma Corp., Catalog No. T8293), 8.8 g of sodium chloride (NaCl) and 1 g of bovine serum albumin (hereinafter abbreviated as “BSA”) were dissolved in 1 L of water to prepare a Tris-BSA buffer (100 mmol/L Tris, 0.15 mol/L NaCl, 0.1% BSA, pH 7.4).\nThis Tris-BSA buffer (180 μL) was added to the aforementioned 10 mmol/L compound solution (20 μL). A 10-fold dilution series was prepared for this mixture using the aforementioned Tris-BSA buffer, and solutions with the compound at concentrations of 1.0 mmol/L, 100, 10, 1, 0.1, 0.01 and 0.001 μmol/L were prepared (1.0 mmol-0.001 μmol/L compound solutions). As a control, a solution was prepared by 10-fold dilution of DMSO with the Tris-BSA buffer (hereinafter referred to as “control 10% solution”).\nAfter dissolving one packet of Tris preset, NaCl (8.8 g) and BSA (1 g) in water (about 900 mL), there were added 1 mol/L aqueous calcium chloride (CaCl2) (15 mL) and 1 mg/mL aqueous cephalin (30 mL), and the total volume was brought to 1 L by adding water. To this solution there was added a human tissue factor (hereinafter, “TF”) sample (product of Calbiochem, Catalog No. 612151) (450 μg) to a TF sample concentration of 10 nmol/L, and then a human clotting factor VIIa (hereinafter, “Factor VIIa”) purified sample (product of Enzyme Research Laboratories, Catalog No. HFVIIa) (250 μg) was added to a Factor VIIa purified sample concentration of 5 nmol/L, to prepare an enzyme solution (100 mmol/L Tris-HCl, 0.15 mol/L NaCl, 15 mmol/L CaCl2, 30 μg/mL cephalin, 1 mg/mL BSA, 10 nmol/L TF, 5 nmol/L Factor VIIa).\nTo 110 μL of this enzyme solution there was added 15 μL of each of the 1.0 mmol-0.001 μmol/L compound solutions, and then 25 μL of a 1.0 mmol/L synthetic chromogenic substrate solution (Spectrozyme FVIIa, product of American Diagnostica, Catalog No. 217L) was added and the mixture was allowed to stand at room temperature for 40 minutes. Next, the amount of 4-nitroanilide released into the solution was quantitated by spectrophotometry (405 nm).\nA control measurement was conducted in the same manner, using the control 10% solution instead of the compound solution.\nThis measurement yielded the enzyme reaction inhibition in the presence of 100 μmol/L to 0.1 nmol/L of each compound of the invention.\nThe enzyme reaction inhibition at each compound concentration was subjected to non-linear regression analysis, and the IC50 value for inhibitory activity of each compound against clotting factor VIIa was calculated.", "units": {"IC50": "nM"}, "values": [{"smiles": "COc1cc(F)c(C(Nc2ccc(C(=N)N)cc2)c2nn(-c3ccccc3C(=O)O)c(=O)[nH]2)cc1OC", "note": "(racemic) [Example 1, (R) and (S)-2-{3-[(4-carbamimidoylphenylamino)-(2-fluoro-4,5-dimethoxyphenyl)methyl]-5-oxo-4,5-dihydro-[1,2,4]triazol-1-yl}benzoic acid acetate]", "IC50": 7.5}, {"smiles": "COc1cc(OCCF)c(F)c(C(Nc2ccc(C(=N)N)cc2)c2nn(-c3ncccn3)c(=O)[nH]2)c1", "note": "(racemic) [Example 3, (R) and (S)-4-({[2-fluoro-3-(2-fluoroethoxy)-5-methoxyphenyl]-(5-oxo-1-pyrimidin-2-yl-4,5-dihydro-1H-[1,2,4]triazol-3-yl)methyl}amino)benzamidine acetate]", "IC50": 4.8}, {"smiles": "COc1cc(O[C@H]2CCOC2)cc(C(Nc2ccc(C(=N)N)cc2)c2nn(-c3ncccn3)c(=O)[nH]2)c1", "note": "(mixture of isomers) [Example 4, 4-{[(R) and (S)-{3-methoxy-5-[(S)-(tetrahydrofuran-3-yl)oxy]phenyl}-(5-oxo-1-pyrimidin-2-yl-4,5-dihydro-1H-[1,2,4]triazol-3-yl)methyl]amino}benzamidine acetate]", "IC50": 3}, {"smiles": "COc1cc(O[C@@H]2CCOC2)cc(C(Nc2ccc(C(=N)N)cc2)c2nn(-c3ncccn3)c(=O)[nH]2)c1", "note": "(mixture of isomers) [Example 5, 4-[((R) and (S)-{3-methoxy-5-[(R)-(tetrahydrofuran-3-yl)oxy]phenyl}-(5-oxo-1-pyrimidin-2-yl-4,5-dihydro-1H-[1,2,4]triazol-3-yl)methyl)amino]benzamidine acetate]", "IC50": 4.9}, {"smiles": "COCCOc1cc(OC)cc(C(Nc2ccc(C(=N)N)cc2)c2nn(-c3ncccn3)c(=O)[nH]2)c1", "note": "(racemic) [Example 6, (R) and (S)-4-({[3-methoxy-5-(2-methoxyethoxy)phenyl]-(5-oxo-1-pyrimidin-2-yl-4,5-dihydro-1H-[1,2,4]triazol-3-yl)methyl}amino)benzamidine acetate]", "IC50": 10.3}, {"smiles": "COCCOc1cc(OC)cc(C(Nc2ccc(C(=N)N)cc2)c2nn(-c3cccnn3)c(=O)[nH]2)c1", "note": "(racemic) [Example 7, (R) and (S)-4-({[3-methoxy-5-(2-methoxyethoxy)phenyl]-(5-oxo-1-pyridazin-3-yl-4,5-dihydro-1H-[1,2,4]triazol-3-yl)methyl}amino)benzamidine acetate]", "IC50": 9.9}, {"smiles": "COc1cc(OCCN(C)C)cc(C(Nc2ccc(C(=N)N)cc2)c2nn(-c3ncccn3)c(=O)[nH]2)c1", "note": "(racemic) [Example 8, (R) and (S)-4-({[3-(2-dimethylaminoethoxy)-5-methoxyphenyl]-(5-oxo-1-pyrimidin-2-yl-4,5-dihydro-1H-[1,2,4]triazol-3-yl)methyl}amino)benzamidine diacetate]", "IC50": 22.6}, {"smiles": "COc1cc(OC)cc(C(Nc2ccc(C(=N)N)cc2)c2nn(-c3ncccn3)c(=O)[nH]2)c1", "note": "(racemic) [Example 9, (R) and (S)-4-{[(3,5-dimethoxyphenyl)-(5-oxo-1-pyrimidin-2-yl-4,5-dihydro-1H-[1,2,4]triazol-3-yl)methyl]amino}benzamidine acetate]", "IC50": 9.8}, {"smiles": "COCc1cc(OC)cc(C(Nc2ccc(C(=N)N)cc2)c2nn(-c3ncccn3)c(=O)[nH]2)c1", "note": "(racemic) [Example 10, (R) and (S)-4-{[(3-methoxy-5-methoxymethylphenyl)-(5-oxo-1-pyrimidin-2-yl-4,5-dihydro-1H-[1,2,4]triazol-3-yl)methyl]amino}benzamidine acetate]", "IC50": 21.1}, {"smiles": "COc1cc(CO)cc(C(Nc2ccc(C(=N)N)cc2)c2nn(-c3ncccn3)c(=O)[nH]2)c1", "note": "(racemic) [Example 12, (R) and (S)-4-{[(3-hydroxymethyl-5-methoxyphenyl)-(5-oxo-1-pyrimidin-2-yl-4,5-dihydro-1H-[1,2,4]triazol-3-yl)methyl]amino}benzamidine trifluoroacetate]", "IC50": 33.8}, {"smiles": "COc1cc(OCC(=O)N(C)C)c(F)c(C(Nc2ccc(C(=N)N)cc2)c2nn(-c3ncccn3)c(=O)[nH]2)c1", "note": "(racemic) [Example 15, (R) and (S)-2-{3-[(4-carbamimidoylphenylamino)-(5-oxo-1-pyrimidin-2-yl-4,5-dihydro-1H-[1,2,4]triazol-3-yl)methyl]-2-fluoro-5-methoxyphenoxy}-N,N-dimethylacetamide acetate]", "IC50": 13.4}, {"smiles": "COc1cc(C(Nc2ccc(C(=N)N)cc2)c2nn(-c3ncccn3)c(=O)[nH]2)ccc1OCC#N", "note": "(racemic) [Example 16, (R) and (S)-4-{[(4-cyanomethoxy-3-methoxyphenyl)-(5-oxo-1-pyrimidin-2-yl-4,5-dihydro-1H-[1,2,4]triazol-3-yl)methyl]amino}benzamidine acetate]", "IC50": 11.5}, {"smiles": "CCOc1cc(C(Nc2ccc(C(=N)N)cc2)c2nn(-c3ncccn3)c(=O)[nH]2)ccc1OC", "note": "(racemic) [Example 17, (R) and (S)-4-{[(3-ethoxy-4-methoxyphenyl)-(5-oxo-1-pyrimidin-2-yl-4,5-dihydro-1H-[1,2,4]triazol-3-yl)methyl]amino}benzamidine acetate]", "IC50": 7.5}, {"smiles": "CCOc1ccc(C(Nc2ccc(C(=N)N)cc2)c2nn(-c3ncccn3)c(=O)[nH]2)cc1OC", "note": "(racemic) [Example 18, (R) and (S)-4-{[(4-ethoxy-3-methoxyphenyl)-(5-oxo-1-pyrimidin-2-yl-4,5-dihydro-1H-[1,2,4]triazol-3-yl)methyl]amino}benzamidine acetate]", "IC50": 15.5}, {"smiles": "COc1cc(C(Nc2ccc(C(=N)N)cc2)c2nn(-c3ncccc3N)c(=O)[nH]2)cc(C)n1", "note": "(racemic) [Example 19, (R) and (S)-4-({[1-(3-aminopyridin-2-yl)-5-oxo-4,5-dihydro-1H-[1,2,4]triazol-3-yl]-(2-methoxy-6-methylpyridin-4-yl)methyl}amino)benzamidine acetate]", "IC50": 12.8}, {"smiles": "COc1cc(C(Nc2ccc(C(=N)N)cc2)c2nn(-c3ncccn3)c(=O)[nH]2)cc2c1OCCO2", "note": "(racemic) [Example 20, (R) and (S)-4-{[(8-methoxy-2,3-dihydro-benzo[1,4]dioxin-6-yl)-(5-oxo-1-pyrimidin-2-yl-4,5-dihydro-1H-[1,2,4]triazol-3-yl)methyl]amino}benzamidine acetate]", "IC50": 9.7}, {"smiles": "COc1cc(C(Nc2ccc(C(=N)N)cc2)c2nn(-c3ncccn3)c(=O)[nH]2)cc2c1OCOC2", "note": "(racemic) [Example 21, (R) and (S)-4-{[(8-methoxy-4H-benzo[1,3]dioxin-6-yl)-(5-oxo-1-pyrimidin-2-yl-4,5-dihydro-1H-[1,2,4]triazol-3-yl)methyl]amino}benzamidine acetate]", "IC50": 10.6}, {"smiles": "COCc1cc(C(Nc2ccc(C(=N)N)cc2)c2nn(-c3ncccn3)c(=O)[nH]2)cc(OC)c1OC", "note": "(racemic) [Example 22, (R) and (S)-4-{[(3,4-dimethoxy-5-methoxymethyl-phenyl)-(5-oxo-1-pyrimidin-2-yl-4,5-dihydro-1H-[1,2,4]triazol-3-yl)methyl]amino}benzamidine acetate]", "IC50": 8.3}, {"smiles": "COc1cc(C(Nc2ccc(C(=N)N)cc2)c2nn(-c3ncccn3)c(=O)[nH]2)cc2c1OCCC2", "note": "(racemic) [Example 24, (R) and (S)-4-{[(8-methoxychroman-6-yl)-(5-oxo-1-pyrimidin-2-yl-4,5-dihydro-1H-[1,2,4]triazol-3-yl)methyl]amino}benzamidine acetate]", "IC50": 7.4}, {"smiles": "COc1cc(C(Nc2ccc(C(=N)N)cc2)c2nn(-c3ncccn3)c(=O)[nH]2)cc(CC#N)c1OC", "note": "(racemic) [Example 26, (R) and (S)-4-{[(3-cyanomethyl-4,5-dimethoxyphenyl)-(5-oxo-1-pyrimidin-2-yl-4,5-dihydro-1H-[1,2,4]triazol-3-yl)methyl]amino}benzamidine acetate]", "IC50": 5.4}, {"smiles": "CCc1cc(C(Nc2ccc(C(=N)N)cc2)c2nn(-c3ncccn3)c(=O)[nH]2)cc2c1OCOC2", "note": "(racemic) [Example 27, (R) and (S)-4-{[(8-ethyl-4H-benzo[1,3]dioxin-6-yl)-(5-oxo-1-pyrimidin-2-yl-4,5-dihydro-1H-[1,2,4]triazol-3-yl)methyl]amino}benzamidine acetate]", "IC50": 3.1}]}]}
